Laboratory results taken from patent US20240368644A1, “METHODS TO PRODUCE THERAPEUTIC FORMULATIONS COMPRISING HYDROXYBUTIRATE AND HYDROXYVALERATE, THERAPEUTIC FORMULATIONS AND USES THEREOF” (PHB Industrial S.A., priority 2021, published 2024).

Legend:
[1] = Increase in circulating ketone level after administration of D-BHB, D-BHV and D-1,3BD in various ratios, subjects at rest; type: in vivo, human; settings: for Max change in mMol/L (increase in circulating ketone level): 10 g dose, three human subjects at rest, composition given as % D-BHB acid; for prolonged rise of blood ketone levels: based on measured plasma levels of FIG. 1
Text: (§1) Examples include using a composition including D-BHB, D-BHV, and D-1,3BD in a subject at rest. The ketotic efficiency represents the net elevation of circulating ketones a ketone supplement affects over time in an individual. Ketotic efficiency may be represented as:
As illustrated by the examples of FIG. 1, these exemplary compositions can advantageously elevate circulating ketones by approximately two times greater than other known compositions. Such a composition can sustain ketonemia for longer than either D-BHB or D-1,3BD can when ingested alone by a subject of a given weight as shown by the 100% line (i.e., contains D-BHB, but not D-1,3BD) and the 0% line (i.e., contains only D-1,3BD, but not D-BHB).
As shown in the following table, the increase in circulating ketone level with a 10 g dose in three human subjects at rest was maximal at between 45-55% D-BHB in the tested compositions.

[2] = Ketotic efficiency (net elevation of circulating ketones over time per dose); type: in vivo, human; settings: person at rest, concentration of DBHB + DBHV in composition with D-1,3BD; for 1 hour ketotic efficiency: 1 hour post-administration; for 2 hours ketotic efficiency: 2 hours post-administration
Text: as §1
where mMol/L is the concentration of circulating p-hydroxybutyrate in the blood, g is the total dose of the combined D-BHB, D-BHV, and D-1,3,BD in grams, kg is the mass of the individual in kilograms, and t is an increment of time in minutes.
The ketotic efficiency of the D-BHB, D-BHV, and D-1,3BD blend measured over of one hour in this exemplary study is 43% to 104% greater than the administration of pure (D)-1,3 butanediol or pure (D)-β-hydroxybutyric acid alone, respectively. While this example pertains to a fasted subject at rest, the relative utility of blended vs pure constituents has also been observed in fed and active subjects.
FIG. 2 represents the expected ketosis for a person at rest with a 0.13 g/kg dose of (D)-β-hydroxybutyric acid, (D)-β-hydroxyvaleric acid, and (D)-1,3 butanediol over time for the periods shown. […] Administration of examples in accordance with the present disclosure are expected to cause efficient, prolonged rises in circulating blood ketone levels in a manner that is unexpected based on the current literature. As shown in the following table, the highest efficiency at both 1 and 2 hours post-administration was obtained at 45% D-BHB+D-BHV (0.96:0.04) to 55% D-1,3BD and the lowest efficiency was observed when administering D-BHB or D-1,3BD alone.

[3] = tested on: patients with glucose transporter 1 deficiency syndrome (GLUT1); settings: cited from earlier work

CC(O)CCO (stereo not drawn) [0%, (D)-1,3 butanediol]
Max change in mMol/L (increase in circulating ketone level) [1]: 0.8 mmol/L | prolonged rise of blood ketone levels [1]: does not cause a prolonged rise of blood ketone levels | 1 hour ketotic efficiency [2]: 266 kg·mmol·min/g/L | 2 hours ketotic efficiency [2]: 462 kg·mmol·min/g/L

CC(O)CC(=O)O (stereo not drawn) [100%, (D)-β-hydroxybutyric acid]
Max change in mMol/L (increase in circulating ketone level) [1]: 0.9 mmol/L | prolonged rise of blood ketone levels [1]: A similar result | 1 hour ketotic efficiency [2]: 335 kg·mmol·min/g/L | 2 hours ketotic efficiency [2]: 566 kg·mmol·min/g/L

CCCCCCC(=O)OCC(COC(=O)CCCCCC)OC(=O)CCCCCC [triheptanoin, Triheptanoin]
decrease of paroxysmal non-epileptic manifestations [3]: 90%
